# Reference: publication PMC12301034, “Design and Synthesis of Boronic Chalcones with Dual Anticancer and Anti-Inflammatory Activity” (Molecules, 2025)
# Like-named read-outs stand apart in the source and are kept apart here.
# Legend:
# SCC-25 cells = assay: MTT cytotoxicity assay on SCC-25 cells; format: cell-based, human; conditions: for IC50: MTT, 24 h incubation, mean SEM of three experiments; for SI = IC50 NOK-si/IC50 SCC-25: selectivity index
# Source text: (§1) The SCC-25 (ATCC® CRL-1628™), Detroit-562 (ATCC® CCL-138™), and THP-1 (ATCC® TIB-202™) cells were purchased from Rio de Janeiro Cell Bank (Duque de Caxias, Brazil), and NOK-si was kindly provided by Prof. Carlos Rossa from the School of Dentistry—UNESP. All the cells were cultivated according to standard conditions. Human colorectal adenocarcinoma HCT116 cell lines (ATCC® CCL-247™) expressing p53 and its p53-null isogenic derivative (HCT116 p53^−/−) were provided by B. Vogelstein (The Johns Hopkins Kimmel Cancer Center, Baltimore, MD, USA).
# (§2) Cells (NOK-si, SCC-25, and Detroit-562) were grown in a DMEM medium (Dulbecco’s Modified Eagle Medium), supplemented according to the needs of each lineage, as recommended by its cell banks, with 2 mM L-glutamine, 10% or 20% fetal bovine serum (FBS), 1% antibiotic–antimycotic solution (5 mg/mL penicillin, 5 mg/mL streptomycin, and 10 mg/mL neomycin), 4.5 g/L of glucose, and 3.7 g/L of sodium bicarbonate (NaHCO3). All cell lines were cultured in flasks at 37 °C in 5% carbon dioxide (CO2) and 95% of relative humidity. The assays were conducted between the third- and the seventh-cell passage, with sub-cultures every 3–4 days to maintain exponential growth. The cell viability was checked using the trypan blue dye exclusion assay for all experiments, where over 95% of the cells were viable at the beginning of the tests. NOK-si, SCC-25, and Detroit-562 were initially thawed and cultured in 25 cm^2 cell culture flasks. Cell growth was monitored using a microscope, and the culture medium was changed periodically. Upon reaching confluency, cell dissociation was achieved by adding 5 mL of trypsin (Sigma-Aldrich, St Louis, MO, USA) and incubating the bottles in a CO2 incubator for 10 min. Subsequently, the cells were transferred to 15 mL Falcon tubes and centrifuged at 2000 rpm for 10 min. Cell counting was performed using a Countess II FL automated cell counter (ThermoFischer, Waltham, MA, USA). The cells were seeded at a density of 30,000 cells per well in 96-well plates. The plates were then incubated at 37 °C in 5% CO2 for 24 h. Following this, test compounds were incubated for another 24 h at 10 different concentrations: 50, 25, 12.5, 6.25, 3.12, 1.56, 0.78, 0.39, 0.19, and 0.097 µg/mL. After the specified time, MTT reagent (3 mg/mL) (Sigma-Aldrich, St Louis, MO, USA) dissolved in phenol-free RPMI 1640 was added and incubated for 4 h. The formed MTT crystals were solubilized using 2-propanol P.A. (Sigma-Aldrich, St Louis, MO, USA) with agitation. Absorbance was read at 562 nm using an EZ Read 400 microplate reader (Biochrom, Cambridge, UK) and ADAP 2.0 Biochrom software (version 2.0). IC50 values and graphs were calculated using Excel and Prism software (version 10.4.1). The MTT assay results were evaluated for normality using the Shapiro–Wilk test, followed by one-way ANOVA with Tukey’s post hoc test at a significance level of 5%.
# NOK-si cells = assay: MTT cytotoxicity assay on NOK-si normal oral keratinocytes; format: cell-based; conditions: 24 h incubation; for CC50: Keratinocyte, read-out: NOK-si IC50
# Source text: as §1, §2
# HCT116 p53^+/+ cells = assay: SRB cytotoxicity assay on HCT116 p53+/+ cells; format: cell-based, human
# Source text: as §1
# (§3) HCT p53^+/+ and HCT p53^−/− cell lines were seeded in 96-well plates, with a concentration of 5000 cells/well, and allowed to adhere overnight. Afterwards, they were treated with serial dilutions of the compounds for an additional 48 h (compounds were prepared at 30 mM, in DMSO, and tested with a starting concentration of 50μM and 15 μM). Cells passed then through a series of essential steps (fixation with 10% trichloroacetic acid, for 1 h at 4 °C; staining with 0.4% sulforhodamine B (SRB); wash with 1% acetic acid; and solubilization with 10 mM Tris-Base); subsequently, absorbance was measured at 510 nm in a microplate reader (Biotek Instruments Inc., Synergy, MX, USA). IC50 values were determined using GraphPad Prism software, Version 7.0 (La Jolla, CA, USA).
# HCT116 p53^−/− cells = assay: SRB cytotoxicity assay on HCT116 p53-/- cells; format: cell-based, human
# Source text: as §1, §3
# TNF = assay: Anti-inflammatory assay, TNF in LPS-stimulated THP-1 cells (CBA); format: cell-based, human; conditions: 2 and 4 µg/mL, 24 h
# Procedure: For this assay, THP-1 (BCRJ cód. 0234) cells were cultured in Roswell Park Memorial Institute (RPMI-1640, Sigma-Aldrich; Saint Louis, MO, USA) media supplemented with 2 mM L-glutamine, 1 mM sodium pyruvate, 1.50 g/L of sodium bicarbonate, and 10% fetal bovine serum. For obtaining Macrophage-like cells, 250,000 cells per well were plated in a 24-well cell culture plate. A total of 20 ng/mL of Forbol 12-miristato-13-acetato (PMA) was added to each well, and the cells were incubated for 48 h at 37 °C with 5% CO2. After the 48 h, the wells were washed with 1X PBS, and fresh RPMI-1640 media was added. The cells were then incubated for 24 h at 37 °C and 5% CO2. For the cell’s stimulations, after the 24 h, the well was washed with PBS and fresh RPMI1640 media without fetal bovine serum added. For the positive controls of the assay, 3 wells were stimulated with LPS (1 ng/µL) diluted in the same volume and media used for the drugs stimulation. Two different concentrations (2 and 4 µg/mL) were evaluated for each molecule, which were determined to be non-cytotoxic through a cell viability assay. After a 24 h period, the supernatant was removed and used in the cytokine quantification assay. A kit for inflammatory cytokines, BD® Cytometric Bead Array CBA Human Inflammatory, was employed for this assay, containing the following human cytokines: IL-8, IL-1β, IL-6, and TNF. Standard cytokines were prepared in 9 different concentrations: 1:256, 1:128, 1:64, 1:32, 1:16, 1:8, 1:4, 1:2, and 1:1 (“top standard”). Analysis was performed using a Flow Cytometer FACS Aria Fusion BD (Bioscence, Houston, TX, USA). Data analysis was conducted using Prism software (version 10.4.1).
# IL-6 = assay: Anti-inflammatory assay, IL-6 in LPS-stimulated THP-1 cells (CBA); format: cell-based, human; conditions: 2 and 4 µg/mL, 24 h
# Procedure: (§4) For this assay, THP-1 (BCRJ cód. 0234) cells were cultured in Roswell Park Memorial Institute (RPMI-1640, Sigma-Aldrich; Saint Louis, MO, USA) media supplemented with 2 mM L-glutamine, 1 mM sodium pyruvate, 1.50 g/L of sodium bicarbonate, and 10% fetal bovine serum. For obtaining Macrophage-like cells, 250,000 cells per well were plated in a 24-well cell culture plate. A total of 20 ng/mL of Forbol 12-miristato-13-acetato (PMA) was added to each well, and the cells were incubated for 48 h at 37 °C with 5% CO2. After the 48 h, the wells were washed with 1X PBS, and fresh RPMI-1640 media was added. The cells were then incubated for 24 h at 37 °C and 5% CO2. For the cell’s stimulations, after the 24 h, the well was washed with PBS and fresh RPMI1640 media without fetal bovine serum added. For the positive controls of the assay, 3 wells were stimulated with LPS (1 ng/µL) diluted in the same volume and media used for the drugs stimulation. Two different concentrations (2 and 4 µg/mL) were evaluated for each molecule, which were determined to be non-cytotoxic through a cell viability assay. After a 24 h period, the supernatant was removed and used in the cytokine quantification assay. A kit for inflammatory cytokines, BD® Cytometric Bead Array CBA Human Inflammatory, was employed for this assay, containing the following human cytokines: IL-8, IL-1β, IL-6, and TNF. […]
# IL-1β = assay: Anti-inflammatory assay, IL-1β in LPS-stimulated THP-1 cells (CBA); format: cell-based, human; conditions: 2 and 4 µg/mL, 24 h
# Procedure: as §4
# [1] = Partition coefficient (Log P), OECD 117 HPLC method
# Detroit-562 cells = assay: MTT cytotoxicity assay on Detroit-562 cells; format: cell-based; conditions: Homo sapiens; MTT, 24 h incubation, Detroit-562 metastatic pharyngeal cancer model
# Source text: as §1
# Cells (NOK-si, SCC-25, and Detroit-562) were grown in a DMEM medium (Dulbecco’s Modified Eagle Medium), supplemented according to the needs of each lineage, as recommended by its cell banks, with 2 mM L-glutamine, 10% or 20% fetal bovine serum (FBS), 1% antibiotic–antimycotic solution (5 mg/mL penicillin, 5 mg/mL streptomycin, and 10 mg/mL neomycin), 4.5 g/L of glucose, and 3.7 g/L of sodium bicarbonate (NaHCO3). All cell lines were cultured in flasks at 37 °C in 5% carbon dioxide (CO2) and 95% of relative humidity. The assays were conducted between the third- and the seventh-cell passage, with sub-cultures every 3–4 days to maintain exponential growth. The cell viability was checked using the trypan blue dye exclusion assay for all experiments, where over 95% of the cells were viable at the beginning of the tests. NOK-si, SCC-25, and Detroit-562 were initially thawed and cultured in 25 cm^2 cell culture flasks. Cell growth was monitored using a microscope, and the culture medium was changed periodically. […] Absorbance was read at 562 nm using an EZ Read 400 microplate reader (Biochrom, Cambridge, UK) and ADAP 2.0 Biochrom software (version 2.0). IC50 values and graphs were calculated using Excel and Prism software (version 10.4.1). The MTT assay results were evaluated for normality using the Shapiro–Wilk test, followed by one-way ANOVA with Tukey’s post hoc test at a significance level of 5%.
# [2] = reference compounds for calibration curve; cited from earlier work
# [3] = Homo sapiens, HCT-116, 48 h of treatment
# [4] = 48 h of treatment, read-out: HCT p53^+/+ IC50
# [5] = 48 h of treatment, read-out: HCT p53^−/− IC50
chromatographic logP [1],Compound,"IC50 (SCC-25 cells; Homo sapiens, SCC-25)",SI = IC50 NOK-si/IC50 SCC-25 (SCC-25 cells),CC50 (NOK-si cells),further results
2.68,"O=C(/C=C/c1cccc(B(O)O)c1)c1ccccc1 [Compound 2, (E)-(3-(3-oxo-3-phenylprop-1-en-1-yl)phenyl)boronic acid]",134 ± 12.3 µM,1.00,133 ± 3.25 µM,IC50 (HCT116 p53^+/+ cells; [3]): 4.4 ± 0.53 µM; IC50 (HCT116 p53^−/− cells; [3]): 3.63 ± 0.47 µM
1.49,"Nc1cccc(C(=O)/C=C/c2cccc(B(O)O)c2)c1 [Compound 3, (E)-(3-(3-(3-aminophenyl)-3-oxoprop-1-en-1-yl)phenyl)boronic acid]",45.2 ± 13.7 µM,,36.2 ± 10.7 µM,
1.81,"O=C(/C=C/c1cccc(B(O)O)c1)c1cccc(O)c1 [Compound 4, (E)-(3-(3-(3-hydroxyphenyl)-3-oxoprop-1-en-1-yl)phenyl)boronic acid]",9.8 ± 1 µM,1.88,18.5 ± 4.43 µM,IC50 (Detroit-562 cells): 31.6 ± 3.13 µM; IC50 (HCT116 p53^+/+ cells; [3]): 2.33 ± 0.2 µM; IC50 (HCT116 p53^−/− cells; [3]): 2.16 ± 0.25 µM
,"O=c1[nH]cc(F)c(=O)[nH]1 [Compound 5-FU, 5-fluorouracil, reference compound]",1800 µM,lacked selectivity,1800 ± 27.7 µM,
2.3,"COc1ccc(C(=O)/C=C/c2cccc(B(O)O)c2)cc1OC [Compound 6, (E)-(3-(3-(3,4-dimethoxyphenyl)-3-oxoprop-1-en-1-yl)phenyl)boronic acid]",27.2 ± 3.84 µM,0.77,20.8 ± 2.17 µM,
1.18,"Nc1cccc(C(=O)/C=C/c2ccc(B(O)O)cc2)c1 [Compound 9, (E)-(4-(3-(3-aminophenyl)-3-oxoprop-1-en-1-yl)phenyl)boronic acid]",108 ± 22.5 µM,0.69,74.6 ± 15 µM,
1.64,"O=C(/C=C/c1ccc(B(O)O)cc1)c1cccc(O)c1 [Compound 10, (E)-(4-(3-(3-hydroxyphenyl)-3-oxoprop-1-en-1-yl)phenyl)boronic acid]",43.8 ± 4.43 µM,0.59,25.7 ± 11.6 µM,
2.81,"COc1cccc(C(=O)/C=C/c2ccc(B(O)O)cc2)c1 [Compound 11, (E)-(4-(3-(3-methoxyphenyl)-3-oxoprop-1-en-1-yl)phenyl)boronic acid]",65.9 ± 11 µM,1.46,96.2 ± 21.3 µM,IC50 (HCT116 p53^+/+ cells; [3]): 3.96 ± 0.55 µM; IC50 (HCT116 p53^−/− cells; [3]): 3.8 ± 0.26 µM
2.16,"COc1ccc(C(=O)/C=C/c2ccc(B(O)O)cc2)cc1OC [Compound 12, (E)-(4-(3-(3,4-dimethoxyphenyl)-3-oxoprop-1-en-1-yl)phenyl)boronic acid]",38.4 ± 1.63 µM,0.77,29.5 ± 6.08 µM,
,Clc1ccc(C(c2ccc(Cl)cc2)C(Cl)(Cl)Cl)cc1 [DDT],,,,log P of reference compounds [2]: 6.5
,Nc1ccccc1 [aniline],,,,log P of reference compounds [2]: 0.9
,(E)-(3-(3-(2-bromo-4-hydroxyphenyl)-3-oxoprop-1-en-1-yl)phenyl)boronic acid [Compound 7],,1.31,,IC50 (SCC-25 cells): 41.1 ± 4.62 µM; NOK-si IC50 (NOK-si cells): 54.0 ± 10.98 µM; IC50 (HCT116 p53^+/+ cells; [4]): 3.63 ± 0.4 µM; IC50 (HCT116 p53^−/− cells; [5]): 4.2 ± 0.35 µM
,(E)-(3-(3-(2-bromo-4-methoxyphenyl)-3-oxoprop-1-en-1-yl)phenyl)boronic acid [Compound 8],,0.82,,IC50 (SCC-25 cells): 33.4 ± 1.25 µM; NOK-si IC50 (NOK-si cells): 27.4 ± 3.05 µM; IC50 (HCT116 p53^+/+ cells; [4]): 2.06 ± 0.45 µM; IC50 (HCT116 p53^−/− cells; [5]): 1.7 ± 0.72 µM

Compound,chromatographic logP [1],"IC50 (SCC-25 cells; Homo sapiens, SCC-25)",SI = IC50 NOK-si/IC50 SCC-25 (SCC-25 cells),CC50 (NOK-si cells),further results
COc1cccc(C(=O)/C=C/c2ccccc2)c1 [Compound 1],3.73,24.9 ± 1.09 µM,4.08,101.5 ± 0.17 µM,IC50 (HCT116 p53^+/+ cells; [3]): 6.83 ± 1.15 µM; IC50 (HCT116 p53^−/− cells; [3]): 7.56 ± 0.4 µM; reduction of TNF levels (TNF): lower effectiveness; reduction of IL-6 levels (IL-6): lower effectiveness; reduction of IL-1β levels (IL-1β): comparable efficacy in reducing cytokine levels relative to LPS-stimulated cells
